Test results taken from publication PMC3155411 (2011).
pKd: −log10 of the molar value.

Experiments:
[1] = biological target: T1, yeast alcohol dehydrogenase (Saccharomyces cerevisiae, UniProt P00330); assay: fluorescence titration; format: binding
T1 sequence (P00330 2-348): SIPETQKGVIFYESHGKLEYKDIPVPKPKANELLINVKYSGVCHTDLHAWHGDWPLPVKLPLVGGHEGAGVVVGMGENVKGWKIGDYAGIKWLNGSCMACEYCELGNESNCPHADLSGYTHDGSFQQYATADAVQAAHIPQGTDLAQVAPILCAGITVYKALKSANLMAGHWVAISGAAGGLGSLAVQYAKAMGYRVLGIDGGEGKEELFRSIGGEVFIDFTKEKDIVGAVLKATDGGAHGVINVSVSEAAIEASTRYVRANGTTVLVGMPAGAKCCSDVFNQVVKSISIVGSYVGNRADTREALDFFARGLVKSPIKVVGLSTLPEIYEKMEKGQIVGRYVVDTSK

[2] = biological target: carbonic anhydrase (Zn-CA) (Bos taurus, UniProt P00921); assay: fluorescence titration; format: binding
carbonic anhydrase (Zn-CA), sequence (P00921 2-260): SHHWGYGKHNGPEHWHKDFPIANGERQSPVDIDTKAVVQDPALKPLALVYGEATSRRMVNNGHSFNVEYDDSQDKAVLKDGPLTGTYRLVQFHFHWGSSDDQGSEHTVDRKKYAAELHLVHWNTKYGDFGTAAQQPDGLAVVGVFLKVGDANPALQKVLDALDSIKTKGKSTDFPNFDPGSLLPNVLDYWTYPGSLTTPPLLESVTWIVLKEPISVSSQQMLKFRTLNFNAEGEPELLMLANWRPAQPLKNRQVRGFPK

COc1cc(NS(=O)(=O)c2ccc(C)cc2)c2ncccc2c1 [TSQ, 6-methoxy-8-p-toluenesulfonamido-quinoline]
pKd [1]: 4.31 | pKd [2]: 6.81
